Data taken from patent publication US8084605B2, “Polymorphs of succinate salt of 2-[6-(3-amino-piperidin-1-yl)-3-methyl-2,4-dioxo-3,4-dihydro-2H-pyrimidin-1-ylmethy]-4-fluor-benzonitrile and methods of use therefor” (priority 2006, dated 2011).

Key:
Assay type in all cases: physicochemical
[1] = Relative humidity stressing experiments (form by XRPD); conditions: for Form by XRPD after relative humidity stressing: 29 days
Source text: Samples of Compound I were placed uncovered in approximately 58%, 88%, and 97% relative humidity jars. The samples were stored in the jars for approximately 8 days. The solids were collected and analyzed by XRPD for form identification. Aliquots of Form A of Compound I were stored under approximately 50% and 97% relative humidity for 29 days. An aliquot of a mixture of Form A+B was stressed at 88% relative humidity for 23 days. Amorphous Form was stressed at 58% and 88% relative humidity for 23 days.

[2] = Moisture sorption/desorption analysis
Procedure: Moisture sorption/desorption data were collected on a VTI SGA-100 Vapor Sorption Analyzer. Sorption and desorption data were collected over a range of 5% to 95% relative humidity (RH) at 10% RH intervals under a nitrogen purge. Samples were not dried prior to analysis. Equilibrium criteria used for analysis were less than 0.0100% weight change in 5 minutes, with a maximum equilibration time of 3 hours if the weight criterion was not met. Data were not corrected for the initial moisture content of the samples. NaCl and PVP were used as calibration standards. Moisture sorption and desorption study was conducted on a sample of Form A+B. The sample was prepared by crashed cooling crystallization (Example 3, section A.6) of the polymorphic forms from a ethanol:water (95:5) solution of Compound I. The moisture sorption and desorption study was conducted according to the procedures outlined in Example 3, section B. 10. The data collected is plotted in FIG. 13 and summarized in Table L. Moisture sorption and desorption study was conducted on a sample of Form E. The sample was prepared by solvent/antisolvent crystallization (Example 3, section A.7) by the addition of acetonitrile to Compound I in water. The moisture sorption and desorption study was conducted according to the procedures outlined in Example 3, section B. 10. The data collected is plotted in FIG. 23 and summarized in Table M. Moisture sorption and desorption study was conducted on a sample of Amorphous Form. The sample was prepared by lyophilolization of a solution of Compound I in water (Example 3, section A.9). The moisture sorption and desorption study was conducted according to the procedures outlined in Example 3, section B. 10.

[3] = Approximate solubility of Compound I in different solvents; conditions: most solvents, with the exceptions of DMF, methanol, TFE, water and water:solvent mixtures
Procedure: Compound I prepared by the method described in Example 1 was used for the solubility study. Solvents and other reagents were of ACS or HPLC grade and were used as received.
A weighed sample (typically about 20-25 mg) of Compound I was treated at ambient temperature with aliquots (typically ≧50 μL) of the test solvent with sonication between additions. Solvents were either reagent or HPLC grade. Solubility was estimated from the total volume of solvent used to obtain a clear solution, as determined by visual inspection. Solubility is expressed as “less than” when dissolution was not observed. If dissolution occurred after the last aliquot was added then solubility is expressed as “greater than or equal to” (≧). The actual solubilities may be greater than determined, due to over addition of solvent (large aliquots) or slow dissolution rates. Approximate solubilities of Compound I are summarized in Table A. The solubility values have been rounded to the nearest whole number and are reported to the nearest mg/mL.

Cn1c(=O)cc(N2CCC[C@@H](N)C2)n(Cc2cc(F)ccc2C#N)c1=O.O=C(O)CCC(=O)O [Form A]
Stability (conclusion from characterization data) ([1]; ambient conditions): stable at ambient conditions
Form by XRPD after relative humidity stressing ([1]; approximately 50% and 97% relative humidity): Form A
Form by XRPD after relative humidity stressing ([1]; approximately 58% and 97% relative humidity): did not exhibit form changes

Cn1c(=O)cc(N2CCC[C@@H](N)C2)n(Cc2ccccc2C#N)c1=O.O=C(O)CCC(=O)O [Amorphous Form]
Weight lost during sorption ([2]; at 75% relative humidity): Approximately 7%

Cn1c(=O)cc(N2CCC[C@@H](N)C2)n(Cc2cc(F)ccc2C#N)c1=O [Compound I, 2-[6-(3-amino-piperidin-1-yl)-3-methyl-2,4-dioxo-3,4-dihydro-2H-pyrimidin-1-ylmethyl]-4-fluoro-benzonitrile succinate]
Solubility (in words) [3]: Poor solubility
XRPD Form post MB ([2]; lyophilized sample from H2O solution): low crystallinity A
XRPD Form post MB ([2]; sample crystallized from H2O/ACN): A + small quantity of E
XRPD Form post MB ([2]; sample prepared by CC from EtOH:H2O (95:5)): A + B
